Experimental data reported in publication PMC7440915, “Discovery of surrogate agonists for visceral fat Treg cells that modulate metabolic indices in vivo” (eLife, 2020).
Where no end group is shown, it is not given here.

Assays:
endogenous Treg cells = assay: Endogenous Fat1562/A^b tetramer^+ Treg cells and scTCR-seq after immunization of wild-type B6 mice; assay type: in vivo, mouse
Excerpt: We next investigated whether Fat1562 immunization of wild-type B6 mice would elicit expansion of particular Treg clones in VAT, and whether their TCRs would resemble the vTreg53 TCR. 16–20 week-old B6 mice were immunized with Fat1562 using the prime and boost scheme (Figure 4—figure supplement 1A), and the Fat1562-reactive CD4^+ T cells were characterized by staining with the Fat1562/A^b-PE tetramer. […] We then sorted individual Fat1562/A^b tetramer^+ Treg cells from the spleen and VAT of these 3 mice into 96-well plates, and determined the sequences of their TCR-β and TCR-α complementarity-determining region (CDR)3 s. […] Within each mouse, the Spl/LNs and VAT Treg clones had the same CDR3α and CDR3β. […] Therefore, although with some degree of variability, Fat1562 was able to expand an endogenous Treg population that highly resembled the original vTreg53 VAT-Treg clone.
Foxp3^+CD4^+ TCRβ^+ Fat1562/A^b-PE^+ Treg cells from VAT or pooled Spl/LN of 16–20 week-old Foxp3-GFP mice were first sorted in bulk before resorting as individual cells using a MoFlo (Beckman Coulter) into wells of 96-well PCR plates containing the reverse transcriptase reaction mix, and cDNA was prepared as described previously ([Burzyn et al., 2013]). Extreme caution was taken to minimize contamination of wells. […]

vTreg53 Treg cells = assay: Proliferation and activation of primary vTreg53 TCR-tg Treg cells in vitro; assay type: cell-based, mouse; conditions: 3 days; for proliferation: compared with no peptide / other SPs; for potency on primary vTreg53 Treg cells: in vitro
Excerpt: Figure 4. SPs induce proliferation and activation of vTreg53 Treg cells in vitro and in vivo. (A–D) Proliferation and activation of vTreg53 Treg cells by different concentrations of SPs for 3 days in vitro (n = 3). (A) Representative flow cytometric plot of cell division. (B) Summary of cell proliferation. (C) Mean flourescence intensity (MFI) of CD44 staining in clonotype^+ Treg cells. (D) MFI of CD62L staining in clonotype^+ Treg cells. (E) Proliferation of transferred CD45.2^+ vTreg53 Treg cells in the spleen of CD45.1^+ B6 recipient mice immunized s.c. with CFA or CFA/Fat1562 at day 3 (n = 3). (F) Expansion of transferred CD45.2^+ vTreg53 Treg cells in the Spl/LNs or VAT of CD45.1^+ B6 recipient mice that were primed with CFA/fat1562 s.c. and boosted with IFA/Fat1562 i.p. (n ≥ 3). Data are mean ± SD. Data shown are representative of at least two independent experiments. Figure 4—figure supplement 1. Single cell TCR sequencing (scTCR-seq) analyses of fat1562-reactive endogenous Treg cells following immunization. (A) Scheme of the experiment. (B) Flow cytometric analysis of fat1562/A^b -PE tetramer+ Treg cells in Spl/LNs (enriched by anti-PE beads) or VAT (not enriched) of mice immunized with adjuvant alone or adjuvant/fat1562. Plot is a representative of mice that did show detectable expansion of tetramer+ Tregs. (C) Numbers of fat1562/A^b -PE tetramer+ Treg cells in Spl/LNs or VAT of mice immunized with adjuvant alone or adjuvant/fat1562 (D) Summary of the frequency and CDR3 sequences of expanded fat1562/A^b -PE tetramer+ Treg clones. [drawing 5] TEXT PRINTED IN THE PICTURE: (A) Fat7: 51 (1μM); 32.1 (0.1μM); 16.4 (0.01μM) | (A) Fat15: 59.7 (1μM); 54.4 (0.1μM); 37.1 (0.01μM) | (A) Fat1562: 61.6 (1μM); 57.6 (0.1μM); 51.8 (0.01μM) | (A) Fat2564: 44.2 (1μM); 32.5 (0.1μM); 19.3 (0.01μM) | (E) CFA: 9.6 | (E) CFA/Fat1562: 76.8 | (F) adjuvant: 0.1 (Spl/LN); 1.5 (VAT) | (F) adjuvant/Fat1562: 0.7 (Spl/LN); 38.1 (VAT) DOUBTS OF THE COPYIST ABOUT THIS PICTURE: Panels A, E, F: the gate numbers in the flow cytometry plots are printed without a measure or unit; they are copied as bare numbers. / Panel A: the row 'no peptide' (15.7, 17.1, 17.2) is a control without a substance and was left out. / Panel A, Fat1562, 1μM: the number is crossed by the histogram line; 61.6 is the best reading. / Panel E, CFA/Fat1562: the number is crossed by the histogram line; 76.8 is the best reading.
Tregs from pooled LNs of Tg^+ Foxp3-GFP^KI/y mice were labeled with CellTrace Violet dye (ThermoFisher Scientific), cultured in complete RPMI medium in the presence of 100 U/ml recombinant mouse IL-2 (peprotech), and stimulated by syngeneic APCs loaded with the indicated concentrations of different peptides. 3 days later, the proliferation and activation of clonotype^+ Treg cells was determined by flow cytometric analysis of the dilution of the CellTrace Violet dye, upregulation of CD44 expression, and downregulation of CD62L levels.

Sequence | mice with detectable expansion of Fat1562/A^b tetramer^+ Treg population (endogenous Treg cells; out of the 10 mice immunized, Spl/LN and VAT, 16–20 week-old B6) | clonality of Fat1562/A^b tetramer^+ Treg population (endogenous Treg cells; three mice, scTCR-seq of CDR3α/β) | CD62L down-regulation (vTreg53 Treg cells; 0.01 µM) | proliferation (vTreg53 Treg cells; 0.01 µM) | CD62L down-regulation (vTreg53 Treg cells; 1 µM, n = 3) | potency on primary vTreg53 Treg cells (vTreg53 Treg cells) | CD44 up-regulation (vTreg53 Treg cells; 0.01 µM, compared with no peptide)
TMYKNPRPMAATG [Fat1562] | three | almost entirely monoclonal | strongest proliferation and down-regulation of CD62L | strongest proliferation | strongest down-regulation of CD62L | consistently the strongest SP | –
TMYKNLRPWAATG [Fat2564] | – | – | – | – | – | relatively weak potency, which was comparable with that of Fat7 | –
LMFKGPHAVQAVG [Fat7] | – | – | – | unable to promote any further proliferation | dampened CD62L levels only moderately | – | unable to promote any further proliferation and up-regulation of CD44 expression
